Results reported in ChEMBL document CHEMBL6109117, “Synthesis of an RBM39 Degrader That Downregulates CEP192 and Induces Disorganized Spindle Structures” (J Med Chem, 2025).
pIC50: −log10 of the molar value. Calls of active or inactive are those of the source. No cut-off for these calls is given here.

Assays:
[1] = tested on: HCT-116; experiment: Induction of RBM39 degradation in human HCT-116 cells assessed as fold change at 1 uM incubated for 24 hrs by Western blot analysis relative to control; type: cell-based
[2] = tested on: HCT-116; experiment: Induction of RBM39 degradation in human HCT-116 cells at 0.05 to 5 uM incubated for 24 hrs in presence of MG132 by Western blot analysis; type: cell-based; settings: dose 0.05-5 µM
[3] = Competitive inhibition of N-terminal His-tagged RBM39 (146 to 326 residues)/DCAF15 (2 to 600 residues)/full-length DDB1 (1 to 1140 residues)(unknown origin) incubated for 1 hr in presence of (R)-N-(3-(N-(3-Cyano-4-methyl-1H-indol-7-yl)sulfamoyl)phenyl)-2-(2-(((6-(3-(3',6'-dihydroxy-3-oxo-3H-spiro[isobenzofuran-1,9'-xanthen]-5-yl)thioureido)hexyl)amino)methyl)pyrrolidin-1-yl)-2-oxoacetamide by fluorescence polarization assay; parameters: species or system Homo sapiens
[4] = tested on: HCT-116; experiment: Downregulation of CEP192 expression in human HCT-116 cells incubated for 24 hrs by Western blot analysis; type: functional, cell-based
[5] = tested on: HCT-116; experiment: Induction of spliceosome function impairment in human HCT-116 cells assessed as increase in CUL4A RI transcript at 1 to 10 uM incubated for 12 hrs by qRT-PCR analysis; type: functional, cell-based; settings: dose 1-10 µM
[6] = tested on: HCT-116; experiment: Induction of spliceosome function impairment in human HCT-116 cells assessed as increase in PRPF38A RI transcript at 1 to 10 uM incubated for 12 hrs by qRT-PCR analysis; type: functional, cell-based; settings: dose 1-10 µM
[7] = tested on: HCT-116; experiment: Induction of spliceosome function impairment in human HCT-116 cells assessed as decrease in ZNF207 exon8-exon9 RNA level at 1 to 10 uM incubated for 12 hrs by qRT-PCR analysis; type: functional, cell-based; settings: dose 1-10 µM
[8] = tested on: MV4-11; experiment: Induction of spliceosome function impairment in human MV4-11 cells assessed as increase in PRPF38A RI transcript incubated for 12 hrs by qRT-PCR analysis; type: functional, cell-based; settings: dose 1-10 µM
[9] = tested on: K562; experiment: Induction of spliceosome function impairment in human K562 cells assessed as increase in NCKAP1L RI transcript incubated for 12 hrs by qRT-PCR analysis; type: functional, cell-based; settings: dose 1-10 µM
[10] = tested on: K562; experiment: Induction of spliceosome function impairment in human K562 cells assessed as decrease in ZNF207 transcript at 1 to 10 uM incubated for 12 hrs by qRT-PCR analysis; type: functional, cell-based; settings: dose 1-10 µM
[11] = tested on: HCT-116; experiment: Effect on RNA splicing in human HCT-116 cells assessed as CEP192 gene exon splicing at 2 uM incubated for 12 hrs by RNA-seq analysis; type: functional, cell-based
[12] = tested on: HCT-116; experiment: Effect on RNA splicing in human HCT-116 cells assessed as ESPL1 gene alternative 5' splice site at 2 uM incubated for 12 hrs by RNA-seq analysis; type: functional, cell-based
[13] = tested on: HCT-116; experiment: Effect on RNA splicing in human HCT-116 cells assessed as MCL-1 gene alternative splicing at 2 uM incubated for 12 hrs by RNA-seq analysis; type: functional, cell-based
[14] = Effect on RNA splicing in human HCT-116 cells assessed as number of retention of introns at 2 uM incubated for 12 hrs by RNA-seq analysis; type: functional
[15] = tested on: HCT-116; experiment: Effect on RNA splicing in human HCT-116 cells assessed as number of alternative 3' splice sites at 2 uM incubated for 12 hrs by RNA-seq analysis; type: functional
[16] = Effect on RNA splicing in human HCT-116 cells assessed as number of alternative 5' splice sites at 2 uM incubated for 12 hrs by RNA-seq analysis; type: functional
[17] = tested on: K562; experiment: Effect on RNA splicing in human K562 cells assessed as ESPL1 gene skipping exon at 2 uM incubated for 12 hrs by RNA-seq analysis; type: functional, cell-based
[18] = tested on: K562; experiment: Effect on RNA splicing in human K562 cells assessed as KNL1 gene skipping exon at 2 uM incubated for 12 hrs by RNA-seq analysis; type: functional, cell-based
[19] = tested on: HCT-116; experiment: Induction of apoptosis in human HCT-116 cells at 0.1 to 5 uM incubated for 48 hrs by Annexin V-FITC/PI staining based flow cytometry; type: functional, cell-based; settings: dose 0.1-5 µM
[20] = Effect on mitosis in human HCT-116 cells assessed as normal mitotic cells at 1 uM incubated for 48 hrs by immunofluorescence based analysis relative to control; type: functional
[21] = Effect on mitosis in human HCT-116 cells assessed as defective mitotic cells at 1 uM incubated for 48 hrs by immunofluorescence based analysis relative to control; type: functional
[22] = Cmax in ICR mouse at 15 mg/kg, po; type: ADME, organism-based; settings: in vivo
[23] = AUC (0 to t) in ICR mouse at 15 mg/kg, po; type: ADME, organism-based; settings: in vivo
[24] = tested on: HCT-116; experiment: Effect on RNA splicing in human HCT-116 cells assessed as CEP192 gene retention of introns incubated for 12 hrs by PCR analysis; type: functional, cell-based; settings: dose <= 10.0 µM
[25] = tested on: HCT-116; experiment: Effect on RNA splicing in human HCT-116 cells assessed as CEP192 gene retention of introns up to 10 uM by PCR analysis; type: functional, cell-based; settings: time 1-24 hrs
[26] = tested on: MV4-11; experiment: Effect on RNA splicing in human MV4-11 cells assessed as CEP192 gene retention of introns incubated for 12 hrs by PCR analysis; type: functional, cell-based; settings: dose 0.1-10 µM
[27] = tested on: Kasumi 1; experiment: Effect on RNA splicing in human Kasumi 1 cells assessed as CEP192 gene retention of introns incubated for 12 hrs by PCR analysis; type: functional, cell-based; settings: dose 0.1-10 µM
[28] = tested on: MOLM-13; experiment: Effect on RNA splicing in human MOLM-13 cells assessed as CEP192 gene skipping exons incubated for 12 hrs by PCR analysis; type: functional, cell-based; settings: dose 0.1-10 µM
[29] = tested on: CEM/C1; experiment: Effect on RNA splicing in human CEM/C1 cells assessed as CEP192 gene retention of introns incubated for 12 hrs by PCR analysis; type: functional, cell-based; settings: dose 0.1-10 µM
[30] = tested on: RS4-11; experiment: Effect on RNA splicing in human RS4;11 cells assessed as CEP192 gene skipping exons incubated for 12 hrs by PCR analysis; type: functional, cell-based; settings: dose 0.1-10 µM
[31] = Effect on RNA splicing in human K562 cells assessed as number of mutually exclusive exons at 2 uM incubated for 12 hrs by RNA-seq analysis; type: functional
[32] = Effect on RNA splicing in human K562 cells assessed as number of alternative 5' splice sites at 2 uM incubated for 12 hrs by RNA-seq analysis; type: functional
[33] = Effect on RNA splicing in human K562 cells assessed as skipping exons at 2 uM incubated for 12 hrs by RNA-seq analysis relative to control; type: functional
[34] = Effect on RNA splicing in human K562 cells assessed as alternative 3' splice sites at 2 uM incubated for 12 hrs by RNA-seq analysis relative to control; type: functional
[35] = tested on: HL-60; experiment: Antiproliferative activity against human HL-60 cells assessed as inhibition of cell growth incubated for 4 days by CCK8 assay; type: functional, cell-based; settings: time 4.0 day
[36] = tested on: CEM/C1; experiment: Antiproliferative activity against human CEM/C1 cells assessed as inhibition of cell growth incubated for 4 days by CCK8 assay; type: functional, cell-based; settings: time 4.0 day
[37] = tested on: RS4-11; experiment: Antiproliferative activity against human RS4;11 cells assessed as inhibition of cell growth incubated for 4 days by CCK8 assay; type: functional, cell-based; settings: time 4.0 day
[38] = tested on: MV4-11; experiment: Induction of RBM39 degradation in human MV4-11 cells incubated for 24 hrs by Western blot analysis; type: cell-based
[39] = tested on: MOLM-13; experiment: Induction of RBM39 degradation in human MOLM-13 cells incubated for 24 hrs by Western blot analysis; type: cell-based
[40] = tested on: CEM/C1; experiment: Induction of RBM39 degradation in human CEM/C1 cells incubated for 24 hrs by Western blot analysis; type: cell-based

SMILES	fold change (FC) [1]	Activity [2]	pIC50 [3]	Activity [4]	Activity [8]	Activity [9]	Activity [10]	Activity [11]	Activity [12]	Activity [13]	Activity [14]	Activity [15]	Activity [16]	Activity [17]	Activity [18]	Activity [19]	Activity [20]	Activity [21]	further results
NS(=O)(=O)c1ccc(S(=O)(=O)Nc2cccc3c(Cl)c[nH]c23)cc1 [INDISULAM]	0.16	inactive	6.38	Dose-dependent-effect	Active	Active	Active	Active	Active	No effect	1378	836	389	Active	Active	inactive	1.4%	18.3%	Activity [5]: Active; Activity [6]: Active; Activity [7]: Active
Cc1ccc(NS(=O)(=O)c2cccc(NC(=O)C(=O)N3CCC[C@@H]3CO)c2)c2[nH]cc(C#N)c12	0.21	inactive	6.23	Dose-dependent-effect	Active	Active	Active	Active	Active	No effect	1098	745	329	Active	Active	inactive	0.8%	21.8%	Cmax [22]: 2120 ng/mL; AUC(0-t) [23]: 3480 ng·h/mL; Activity [24]: Dose-dependent-effect; Observed Retention Of Introns Between Exons 27 And 28; Activity [25]: Time-dependent-effect; Observed Retention Of Introns Between Exons 27 And 28; Activity [26]: Dose-dependent-effect; Observed Retention Of Introns Between Exons 27 And 28; Activity [27]: Dose-dependent-effect; Observed Retention Of Introns Between Exons 27 And 28; Activity [28]: Dose-dependent-effect; Observed Skipping Of Exons 42, 28 And 13; Activity [29]: Dose-dependent-effect; Observed Retention Of Introns Between Exons 27 And 28; Activity [30]: Dose-dependent-effect; Observed Skipping Of Exons 42, 28 And 13; Activity [31]: 1801; Activity [32]: 633; Activity [33]: 70.6%; Activity [34]: 7.1%; inhibition [35]: Active; inhibition [36]: Active; inhibition [37]: Active; Activity [38]: Dose-dependent-effect; Activity [39]: Dose-dependent-effect; Activity [40]: Dose-dependent-effect
